Experimental data from US10221163B2 (priority 2015, dated 2019).
Read-outs that look alike come from different tables or passages of the source.

How the values were obtained:
[1] = molecular target: VIM-1 (Pseudomonas aeruginosa (strain ATCC 15692 / DSM 22644 / CIP 104116 / JCM 14847 / LMG 12228 / 1C / PRS 101 / PAO1), UniProt A0A0F7KYQ8); assay: biochemical; conditions: CCF2-FA substrate, 30 pM enzyme, 2 hours at 25° C.
How it was run: (§1)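 Semi-log dose-response curves, fitted with a 4-parameter model, gave IC50s. The underlying signal was CCF2-FA fluorescence following 2 hours at 25° C with enzyme, substrate and inhibitor combined.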

[2] = system: Pseudomonas aeruginosa MB9798 vs MB9799; conditions: ratio MITC95 PA_9798/MITC95 PA_9799
How it was run: (§2)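 Steps: add fixed imipenem and/or ceftazidime (usually CLSI breakpoint) and fixed AmpC-directed class A/C inhibitor to microbroth MIC wells; titrate MBL inhibitor; record concentration regaining susceptibility for each PAO1-derived strain; divide efflux+ by efflux− value.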

[3] = system: Pseudomonas aeruginosa efflux− (MB9799), IMP-1; format: cell-based; conditions: concentration restoring susceptibility to imipenem at 2 μg/mL in the presence of a class A, C, D serine β-lactamase inhibitor closely related to relebactam
How it was run: as §2

[4] = molecular target: IMP-1 (Serratia marcescens, UniProt P52699); assay: biochemical; format: biochemical; conditions: fluorescence assay, CCF2-FA substrate, 2 pM enzyme, 2 hours at 25° C.; read-out: IMP-1 IC50
How it was run: as §1

[5] = molecular target: NDM-1 (Klebsiella pneumoniae, UniProt C7C422); assay: biochemical; format: biochemical; conditions: fluorescence assay, CCF2-FA substrate, 1 pM enzyme, 2 hours at 25° C.; read-out: NDM-1 IC50
How it was run: as §1

[6] = system: Escherichia coli expressing NDM-1 (CLB30005, CLB30016); format: cell-based; conditions: with imipenem 1 μg/ml; 95% inhibition of bacterial growth
How it was run: (§3)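 Clinical strains grown overnight on blood agar at 35°C, colonies suspended in saline, diluted 1:100 into 1.1×CAMHB. Test compound titrated with imipenem at 1 μg/ml; incubated 22–24 h at 35°C, growth read by absorbance.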

[7] = system: Klebsiella pneumoniae expressing VIM-1 (IHMA599644); format: cell-based; conditions: with imipenem 1 μg/ml; 95% inhibition of bacterial growth
How it was run: as §3

[8] = system: Serratia marcescens expressing IMP-1 (CL5741); format: cell-based; conditions: with imipenem 1 μg/ml; 95% inhibition of bacterial growth
How it was run: as §3

[9] = system: Pseudomonas aeruginosa efflux+ (MB9798), IMP-1; format: cell-based; conditions: concentration restoring susceptibility to imipenem at 2 μg/mL in the presence of a class A, C, D serine β-lactamase inhibitor closely related to relebactam
How it was run: as §2

[10] = fluorescence assay, read-out: VIM-1 IC50

IMP-1, sequence (P52699 whole entry, looked up, species assumed): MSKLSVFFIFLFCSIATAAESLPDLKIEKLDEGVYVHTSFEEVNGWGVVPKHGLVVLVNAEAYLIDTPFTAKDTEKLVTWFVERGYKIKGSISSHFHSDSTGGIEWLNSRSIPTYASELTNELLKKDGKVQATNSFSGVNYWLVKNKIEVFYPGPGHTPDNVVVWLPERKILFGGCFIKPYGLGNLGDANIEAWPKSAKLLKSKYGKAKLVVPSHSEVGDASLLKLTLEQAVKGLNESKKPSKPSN
NDM-1, sequence (C7C422 whole entry, looked up, species assumed): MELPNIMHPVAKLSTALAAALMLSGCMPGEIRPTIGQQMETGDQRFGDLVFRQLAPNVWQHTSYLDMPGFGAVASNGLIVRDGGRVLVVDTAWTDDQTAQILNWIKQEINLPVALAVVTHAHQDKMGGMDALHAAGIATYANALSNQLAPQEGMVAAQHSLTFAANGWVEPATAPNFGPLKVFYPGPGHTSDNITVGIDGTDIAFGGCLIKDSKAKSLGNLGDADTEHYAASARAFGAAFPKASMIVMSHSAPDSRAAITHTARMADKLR

Nc1nc2c(-c3ccc(S(=O)(=O)N4CCNCC4)c(S(N)(=O)=O)c3-c3nn[nH]n3)cccc2s1 [Example 142, 3-(2-Aminobenzo[d]thiazol-4-yl)-6-(piperazin-1-ylsulfonyl)-2-(2H-tetrazol-5-yl)benzenesulfonamide]
IC50 [1, 10]: 0.558 nM | Efflux ratio [2]: 1.33 | P. aeruginosa expressing IMP-1, efflux − (MB9799) MITC95 [3]: 1.172 µM | IC50 [4]: 0.636 nM | IC50 [5]: 0.185 nM | Escherichia coli expressing NDM-1 (CLB30016) MITC95 [6]: 3.906 µM | Klebsiella pneumoniae expressing VIM-1 (IHMA599644) MITC95 [7]: 3.125 µM | Serratia marcescens expressing IMP-1 (CL5741) MITC95 [8]: 1.563 µM | P. aeruginosa expressing IMP-1, efflux + (MB9798) MITC95 [9]: 1.563 µM

Nc1nc2c(-c3ccc(S(N)(=O)=O)c(S(N)(=O)=O)c3-c3nn[nH]n3)cccc2s1 [Example 143, 4-(2-aminobenzo[d]thiazol-4-yl)-3-(2H-tetrazol-5-yl)benzene-1,2-disulfonamide]
IC50 [1, 10]: 0.22 nM | Efflux ratio [2]: 0.50 | P. aeruginosa expressing IMP-1, efflux − (MB9799) MITC95 [3]: 1.563 µM | IC50 [4]: 0.266 nM | IC50 [5]: 0.0849 nM | Escherichia coli expressing NDM-1 (CLB30016) MITC95 [6]: 3.125 µM | Klebsiella pneumoniae expressing VIM-1 (IHMA599644) MITC95 [7]: 12.5 µM | Serratia marcescens expressing IMP-1 (CL5741) MITC95 [8]: 1.563 µM | P. aeruginosa expressing IMP-1, efflux + (MB9798) MITC95 [9]: 0.7813 µM

Nc1nc2c(-c3ccc(S(=O)(=O)NCCO)c(S(N)(=O)=O)c3-c3nn[nH]n3)cccc2s1 [Example 144, 4-(2-aminobenzo[d]thiazol-4-yl)-N1-(2-hydroxyethyl)-3-(2H-tetrazol-5-yl)benzene-1,2-disulfonamide]
IC50 [1, 10]: 0.162 nM | Efflux ratio [2]: 1.00 | P. aeruginosa expressing IMP-1, efflux − (MB9799) MITC95 [3]: 3.125 µM | IC50 [4]: 0.288 nM | IC50 [5]: 0.0898 nM | Escherichia coli expressing NDM-1 (CLB30016) MITC95 [6]: 12.5 µM | Klebsiella pneumoniae expressing VIM-1 (IHMA599644) MITC95 [7]: 12.5 µM | Serratia marcescens expressing IMP-1 (CL5741) MITC95 [8]: 3.125 µM | P. aeruginosa expressing IMP-1, efflux + (MB9798) MITC95 [9]: 3.125 µM

NCCNS(=O)(=O)c1ccc(-c2cccc3sc(N)nc23)c(-c2nn[nH]n2)c1S(N)(=O)=O [Example 145, 4-(2-aminobenzo[d]thiazol-4-yl)-N1-(2-aminoethyl)-3-(2H-tetrazol-5-yl)benzene-1,2-disulfonamide]
IC50 [1, 10]: 0.182 nM | Efflux ratio [2]: 0.50 | P. aeruginosa expressing IMP-1, efflux − (MB9799) MITC95 [3]: 0.7813 µM | IC50 [4]: 0.221 nM | IC50 [5]: 0.0343 nM | Escherichia coli expressing NDM-1 (CLB30016) MITC95 [6]: 0.7813 µM | Klebsiella pneumoniae expressing VIM-1 (IHMA599644) MITC95 [7]: 1.563 µM | Serratia marcescens expressing IMP-1 (CL5741) MITC95 [8]: 0.7813 µM | P. aeruginosa expressing IMP-1, efflux + (MB9798) MITC95 [9]: 0.3906 µM

Nc1nc2c(-c3ccc(S(=O)(=O)NC4CNC4)c(S(N)(=O)=O)c3-c3nn[nH]n3)cccc2s1 [Example 146, 4-(2-aminobenzo[d]thiazol-4-yl)-N1-(azetidin-3-yl)-3-(2H-tetrazol-5-yl)benzene-1,2-disulfonamide]
IC50 [1, 10]: 0.224 nM | Efflux ratio [2]: 0.50 | P. aeruginosa expressing IMP-1, efflux − (MB9799) MITC95 [3]: 0.7813 µM | IC50 [4]: 0.356 nM | IC50 [5]: 0.0372 nM | Escherichia coli expressing NDM-1 (CLB30016) MITC95 [6]: 3.125 µM | Klebsiella pneumoniae expressing VIM-1 (IHMA599644) MITC95 [7]: 1.563 µM | Serratia marcescens expressing IMP-1 (CL5741) MITC95 [8]: 0.7813 µM | P. aeruginosa expressing IMP-1, efflux + (MB9798) MITC95 [9]: 0.3906 µM

Nc1nc2c(-c3ccc(S(=O)(=O)N4CC(N)C4)c(S(N)(=O)=O)c3-c3nn[nH]n3)cccc2s1 [Example 147, 6-((3-aminoazetidin-1-yl)sulfonyl)-3-(2-aminobenzo[d]thiazol-4-yl)-2-(2H-tetrazol-5-yl)benzenesulfonamide]
IC50 [1, 10]: 0.559 nM | Efflux ratio [2]: 1.00 | P. aeruginosa expressing IMP-1, efflux − (MB9799) MITC95 [3]: 3.125 µM | IC50 [4]: 0.494 nM | IC50 [5]: 0.55 nM | Escherichia coli expressing NDM-1 (CLB30016) MITC95 [6]: 25 µM | Klebsiella pneumoniae expressing VIM-1 (IHMA599644) MITC95 [7]: 12.5 µM | Serratia marcescens expressing IMP-1 (CL5741) MITC95 [8]: 6.25 µM | P. aeruginosa expressing IMP-1, efflux + (MB9798) MITC95 [9]: 3.125 µM

Nc1nc2c(-c3ccc(S(=O)(=O)N4CCC(N)CC4)c(S(N)(=O)=O)c3-c3nn[nH]n3)cccc2s1 [Example 148, 3-(2-aminobenzo[d]thiazol-4-yl)-6-((4-aminopiperidin-1-yl)sulfonyl)-2-(2H-tetrazol-5-yl)benzenesulfonamide]
IC50 [1, 10]: 0.749 nM | Efflux ratio [2]: 2.00 | P. aeruginosa expressing IMP-1, efflux − (MB9799) MITC95 [3]: 1.563 µM | IC50 [4]: 0.49 nM | IC50 [5]: 0.213 nM | Escherichia coli expressing NDM-1 (CLB30016) MITC95 [6]: 12.5 µM | Klebsiella pneumoniae expressing VIM-1 (IHMA599644) MITC95 [7]: 6.25 µM | Serratia marcescens expressing IMP-1 (CL5741) MITC95 [8]: 3.125 µM | P. aeruginosa expressing IMP-1, efflux + (MB9798) MITC95 [9]: 3.125 µM

Nc1nc2c(-c3ccc(S(=O)(=O)NCC4(N)CC4)c(S(N)(=O)=O)c3-c3nn[nH]n3)cccc2s1 [Example 149, 4-(2-aminobenzo[d]thiazol-4-yl)-N1-((1-aminocyclopropyl)methyl)-3-(2H-tetrazol-5-yl)benzene-1,2-disulfonamide]
IC50 [1, 10]: 0.739 nM | Efflux ratio [2]: 1.00 | P. aeruginosa expressing IMP-1, efflux − (MB9799) MITC95 [3]: 3.125 µM | IC50 [4]: 0.993 nM | IC50 [5]: 0.216 nM | Escherichia coli expressing NDM-1 (CLB30016) MITC95 [6]: 12.5 µM | Klebsiella pneumoniae expressing VIM-1 (IHMA599644) MITC95 [7]: 6.25 µM | Serratia marcescens expressing IMP-1 (CL5741) MITC95 [8]: 6.25 µM | P. aeruginosa expressing IMP-1, efflux + (MB9798) MITC95 [9]: 3.125 µM

CN(C)S(=O)(=O)c1ccc(-c2cccc3sc(N)nc23)c(-c2nn[nH]n2)c1S(N)(=O)=O [Example 151, 4-(2-aminobenzo[d]thiazol-4-yl)-N1,N1-dimethyl-3-(2H-tetrazol-5-yl)benzene-1,2-disulfonamide]
IC50 [1, 10]: 9.22 nM | Efflux ratio [2]: 16.00 | P. aeruginosa expressing IMP-1, efflux − (MB9799) MITC95 [3]: 3.125 µM | IC50 [4]: 2.43 nM | IC50 [5]: 5.94 nM | Escherichia coli expressing NDM-1 (CLB30016) MITC95 [6]: 12.5 µM | Klebsiella pneumoniae expressing VIM-1 (IHMA599644) MITC95 [7]: 50 µM | Serratia marcescens expressing IMP-1 (CL5741) MITC95 [8]: 6.25 µM | P. aeruginosa expressing IMP-1, efflux + (MB9798) MITC95 [9]: 50 µM

CNS(=O)(=O)c1ccc(-c2cccc3sc(N)nc23)c(-c2nn[nH]n2)c1S(N)(=O)=O [Example 152, 4-(2-aminobezno[d]thiazol-4-yl)-N1-methyl-3-(2H-tetrazol-5-yl)benzene-1,2-disulfonamide]
IC50 [1, 10]: 0.195 nM | Efflux ratio [2]: 8.00 | P. aeruginosa expressing IMP-1, efflux − (MB9799) MITC95 [3]: 1.563 µM | IC50 [4]: 0.264 nM | IC50 [5]: 0.072 nM | Escherichia coli expressing NDM-1 (CLB30016) MITC95 [6]: 3.125 µM | Klebsiella pneumoniae expressing VIM-1 (IHMA599644) MITC95 [7]: 6.25 µM | Serratia marcescens expressing IMP-1 (CL5741) MITC95 [8]: 3.125 µM | P. aeruginosa expressing IMP-1, efflux + (MB9798) MITC95 [9]: 12.5 µM

Nc1nc2c(-c3ccc(S(=O)(=O)NCC(=O)O)c(S(N)(=O)=O)c3-c3nn[nH]n3)cccc2s1 [Example 153, ((4-(2-aminobenzo[d]thiazol-4-yl)-2-sulfamoyl-3-(2H-tetrazol-5-yl)phenyl)sulfonyl)glycine]
IC50 ([1]; VIM-1 IC50, fluorescence assay): 1.05 nM | Efflux ratio [2]: 1.00 | P. aeruginosa expressing IMP-1, efflux − (MB9799) MITC95 [3]: 12.5 µM | IC50 [4]: 0.704 nM | IC50 [5]: 0.28 nM | Escherichia coli expressing NDM-1 (CLB30016) MITC95 [6]: 50 µM | Klebsiella pneumoniae expressing VIM-1 (IHMA599644) MITC95 [7]: 100 µM | Serratia marcescens expressing IMP-1 (CL5741) MITC95 [8]: 25 µM | P. aeruginosa expressing IMP-1, efflux + (MB9798) MITC95 [9]: 12.5 µM

Nc1nc2c(-c3ccc(S(=O)(=O)NC[C@@H](N)C(=O)O)c(S(N)(=O)=O)c3-c3nn[nH]n3)cccc2s1 [Example 154, (R)-2-amino-3-((4-(2-aminobenzo[d]thiazol-4-yl)-2-sulfamoyl-3-(2H-tetrazol-5-yl)phenyl)sulfonamido)propanoic acid]
IC50 [1, 10]: 0.28 nM | Efflux ratio [2]: 0.50 | P. aeruginosa expressing IMP-1, efflux − (MB9799) MITC95 [3]: 6.25 µM | IC50 [4]: 0.155 nM | IC50 [5]: 0.067 nM | Escherichia coli expressing NDM-1 (CLB30016) MITC95 [6]: 50 µM | Klebsiella pneumoniae expressing VIM-1 (IHMA599644) MITC95 [7]: 25 µM | Serratia marcescens expressing IMP-1 (CL5741) MITC95 [8]: 6.25 µM | P. aeruginosa expressing IMP-1, efflux + (MB9798) MITC95 [9]: 3.125 µM

Nc1ccc(-c2ccc(S(N)(=O)=O)c(S(N)(=O)=O)c2-c2nn[nH]n2)cn1 [Example 155, 4-(6-Aminopyridin-3-yl)-3-(2H-tetrazol-5-yl)benzene-1,2-disulfonamide]
IC50 [1, 10]: 0.804 nM | Efflux ratio [2]: 4.88 | P. aeruginosa expressing IMP-1, efflux − (MB9799) MITC95 [3]: 1.281 µM | IC50 [4]: 0.658 nM | IC50 [5]: 1.64 nM | Escherichia coli expressing NDM-1 (CLB30016) MITC95 [6]: 0.0625 µM | Klebsiella pneumoniae expressing VIM-1 (IHMA599644) MITC95 [7]: 2.563 µM | Serratia marcescens expressing IMP-1 (CL5741) MITC95 [8]: 0.6406 µM | P. aeruginosa expressing IMP-1, efflux + (MB9798) MITC95 [9]: 6.25 µM
